Measurements: US12491182B2, “Polymorphs of triazole antifungal compound PC945” (Pulmocide Limited, priority 2019, dated 2025)
Values joined by “and” are separate entries in the source; they are usually repeats but may differ in a detail not shown here. Equal entries are not always repeated.

Key:
[1] = Fate of Form 2 slurried in THF and THF/water mixtures, XRPD; format: physicochemical
Protocol: To investigate the generality of this unforeseen transformation a similar experiment was carried out in THF and in THF/water mixtures. […] At 25° C. those mixtures comprising 10% and 20% water returned Form 1 after 4 and 24 hours respectively (Table 10, Entries 2 and 3).

[2] = Thermo-gravimetric analysis (degradation onset); format: physicochemical
Protocol: TGA data were collected on a TA Instrument Q500 TGA, equipped with a 16 position auto-sampler. The instrument was temperature calibrated using certified Alumel and Nickel. Typically 5-10 mg of sample was loaded onto a pre-tared aluminium DSC pan and heated at 10° C./min from ambient temperature to 350° C. A nitrogen purge at 60 mL/min was maintained over the sample. The instrument control software was Advantage for Q Series v2.5.0.256 and Thermal Advantage v5.5.3 and the data were analysed using Universal Analysis v4.5A.
TGA profiling was carried out according to methods described above and was used to determine the amount of residual solvents associated with the polymorphs of Compound I. In addition, it was used to measure the quantity of solvent released on heating from the solvated forms of Compound I. Typical residual solvent levels found in samples of the polymorphs of Compound I are as follows.

[3] = Comparative pharmacokinetic profiling of Forms 1 and 2 by inhalation administration to rats; format: in vivo, male RccHan:WIST rat; conditions: male rats; for Drug Concentration in Animal by No. (plasma) / Drug Concentration Mean (plasma): nominal 2.2 mg/kg; for Drug Concentration in Animal by No. (plasma): individual animals; for Drug Concentration Mean (plasma): group mean
From the text: A study was undertaken to compare the time-course of unchanged drug concentrations in plasma following a single inhalation dose of either Form 1 or Form 2 in rats.
The male RccHan™:WIST rat was considered a suitable species and strain because of its acceptance by regulatory agencies. The inhalation route of administration was chosen to simulate the conditions of clinical administration. A total of 14 of animals (six animals per group with two spare animals), 10 to 12 weeks of age and weighing 306 to 341 g at the start of drug treatment, were used in the study. Treatment consisted of a single 2 hour inhalation exposure with a nebulised formulation of either micronised Form 1 (98.94% purity) to Group 1 animals or micronised Form 2 (98.10% purity) to Group 2 animals. The pharmacokinetic parameters of the two polymorphic forms were determined to support pharmacology and toxicology studies in animals and clinical studies in man.
Suspensions were manufactured by first preparing a concentrated solution of the surfactants (wetting solution) and a saline solution. These were then used to make the vehicle. A saline solution was prepared as follows. Sodium chloride (50 g) was weighed into a 5000 mL volumetric flask, made up to volume with water, stirred with a magnetic stirrer for 10 min and then passed through a 0.22 μm membrane filter. Wetting solution was prepared as follows. Lipoid S100 (10 g) was weighed into a 2000 mL Duran bottle, 1000 g of propylene glycol was added and the mixture was stirred on a Silverson mixer equipped with a 1″ high shear screen for 1 min at 8000 rpm and then passed through a 0.22 μm membrane filter. Vehicle was prepared as follows. The wetting solution (500 mL) was transferred into a 5000 mL volumetric flask, made to volume with saline solution, stirred with a magnetic stirrer for 10 min and then passed through a 0.22 μm membrane filter.
A 1000 mL batch of 4 mg/mL suspension of Compound I was prepared as follows. Compound I (4.00 g) was weighed into a small beaker, 100 mL of wetting solution was added and the mixture was stirred with a Silverson mixer equipped with a 1″ high shear screen for 5 min at 8000 rpm. The mixture was then transferred into a 5000 mL Duran bottle using saline solution and stirred using a Silverson mixer equipped with a 1″ high shear screen for 5 min at 8000 rpm, after which it was stored between 2 and 8° C. Higher or lower strength suspensions (range 0.2 to 20 mg/mL) were prepared by adjusting the input weight of API as appropriate for higher mg/mL suspensions or by further diluting with vehicle for lower mg/mL suspensions. All formulations were magnetically stirred for at least 30 min, and assessed visually prior to administration.
Rats were acclimatised to the inhalation dosing procedure for three consecutive days prior to dosing. Animals were treated with the test substance by aerosol inhalation administration for 120 min via snout only exposure, at a target aerosol concentration of 25.2 μg/L. The estimations of inhaled dose from an exposure duration of 2 hr and an assumed body weight of 300 g were calculated using the formula:
[formula] where: C is the aerosol concentration (μg/L); RMV is the respiratory minute volume (L/min); D is the duration of exposure (120 mins) and BW is the group mean body weight (kg). The mean achieved aerosol concentrations, estimated inhaled dose and particle size distribution (PSD) summary data are presented below. (Table 14).
Venous blood samples (0.3 mL) were taken from the tail vein of animals and samples collected after dosing (2 hr from the start of dose administration) and thereafter at times 3, 4, 6, 8, 12, 24, 28, 32, 36 and 48 hr following treatment. Samples were treated with K2EDTA anticoagulant, spun at 2000 g for 10 min at 4° C. and then stored frozen (−20° C.±10) whilst awaiting analysis. Plasma samples were subsequently analysed for Compound I by LGC using a validated LC-MS/MS method. […]

[4] = inhalation, IAD (immediately after dosing)

With Cc1cc(N2CCN(c3ccc(C(=O)Nc4ccc(F)cc4)cc3)CC2)ccc1OC[C@@H]1CO[C@@](Cn2cncn2)(c2ccc(F)cc2F)C1 [Form 2, 4-(4-(4-(((3R,5R)-5-((1H-1,2,4-triazol-1-yl)methyl)-5-(2,4-difluorophenyl)tetrahydrofuran-3-yl)methoxy)-3-methylphenyl)piperazin-1-yl)-N-(4-fluorophenyl)benzamide] the “Polymorphic Form by XRPD” value ([1]; THF, water 0 vol %, 25 °C, 1 hr) was 2, the “Polymorphic Form by XRPD” value ([1]; THF, water 0 vol %, 25 °C, 4 hr) was 2 and the “Polymorphic Form by XRPD” value ([1]; THF, water 0 vol %, 50 °C, 1 hr) was 2. The “Polymorphic Form by XRPD” value ([1]; THF, water 0 vol %, 50 °C, 4 hr) was 2, the “Polymorphic Form by XRPD” value ([1]; THF/water, water 10 vol %, 25 °C, 1 hr) was 2 and the “Polymorphic Form by XRPD” value ([1]; THF/water, water 10 vol %, 25 °C, 4 hr) was 1. The “Polymorphic Form by XRPD” value ([1]; THF/water, water 10 vol %, 25 °C, 24 hr) was 1, the “Polymorphic Form by XRPD” value ([1]; THF/water, water 10 vol %, 50 °C, 1 hr) was 1 and the “Polymorphic Form by XRPD” value ([1]; THF/water, water 10 vol %, 50 °C, 4 hr) was 1. For the same compound, the “Polymorphic Form by XRPD” value ([1]; THF/water, water 10 vol %, 50 °C, 24 hr) was 1, the “Polymorphic Form by XRPD” value ([1]; THF/water, water 20 vol %, 25 °C, 1 hr) was 2 and the “Polymorphic Form by XRPD” value ([1]; THF/water, water 20 vol %, 25 °C, 4 hr) was 2. For the same compound, the “Polymorphic Form by XRPD” value ([1]; THF/water, water 20 vol %, 25 °C, 24 hr) was 1, the “Polymorphic Form by XRPD” value ([1]; THF/water, water 20 vol %, 50 °C, 1 hr) was 1 and the “Polymorphic Form by XRPD” value ([1]; THF/water, water 20 vol %, 50 °C, 4 hr) was 1. The “Polymorphic Form by XRPD” value ([1]; THF/water, water 20 vol %, 50 °C, 24 hr) was 1, the “Polymorphic Form by XRPD” value ([1]; THF/water, water 40 vol %, 25 °C, 1 hr) was 2 and the “Polymorphic Form by XRPD” value ([1]; THF/water, water 40 vol %, 25 °C, 4 hr) was 2. The “Polymorphic Form by XRPD” value ([1]; THF/water, water 40 vol %, 25 °C, 24 hr) was 2, the “Polymorphic Form by XRPD” value ([1]; THF/water, water 40 vol %, 50 °C, 1 hr) was 1 and the “Polymorphic Form by XRPD” value ([1]; THF/water, water 40 vol %, 50 °C, 4 hr) was 1. For the same compound, the “Polymorphic Form by XRPD” value ([1]; THF/water, water 40 vol %, 50 °C, 24 hr) was 1, the “temperature at which sample begun to degrade (TGA)” value ([2]; material isolated from MIBK) was 320 °C and the “temperature at which degradation started (TGA)” value ([2]; sample derived from EtOH) was 320 °C. The “dose normalised AUCt, fold higher than Form 1” value ([3]; inhalation) was 1.7 fold, the “Drug Concentration in Animal by No. (plasma)” value ([3]; inhalation, 3 hr from start of exposure) was 8.95 ng/mL and 5.40 ng/mL and 6.01 ng/mL and the “Drug Concentration Mean (plasma)” value ([3]; inhalation, 3 hr) was 6.79 ng/mL. For the same compound, the “Drug Concentration in Animal by No. (plasma)” value ([3]; inhalation, 4 hr from start of exposure) was 7.53 ng/mL and 9.31 ng/mL and 8.88 ng/mL, the “Drug Concentration Mean (plasma)” value ([3]; inhalation, 4 hr) was 8.57 ng/mL and the “Drug Concentration in Animal by No. (plasma)” value ([3]; inhalation, 6 hr from start of exposure) was 11.8 ng/mL and 5.38 ng/mL. For the same compound, the “Drug Concentration Mean (plasma)” value ([3]; inhalation, 6 hr) was 8.59 ng/mL, the “Drug Concentration in Animal by No. (plasma)” value ([3]; inhalation, 8 hr from start of exposure) was 6.85 ng/mL and 5.90 ng/mL and 6.79 ng/mL and the “Drug Concentration Mean (plasma)” value ([3]; inhalation, 8 hr) was 6.51 ng/mL. For the same compound, the “Drug Concentration in Animal by No. (plasma)” value ([3]; inhalation, 12 hr from start of exposure) was 10.7 ng/mL and 4.57 ng/mL and 5.84 ng/mL, the “Drug Concentration Mean (plasma)” value ([3]; inhalation, 12 hr) was 7.04 ng/mL and the “Drug Concentration in Animal by No. (plasma)” value ([3]; inhalation, 24 hr from start of exposure) was 11.5 ng/mL. For the same compound, the “Drug Concentration in Animal by No. (plasma)” value ([3]; inhalation, 28 hr from start of exposure) was 8.15 ng/mL and 3.17 ng/mL and 3.32 ng/mL and 4.15 ng/mL and 2.94 ng/mL and 2.93 ng/mL, the “Drug Concentration Mean (plasma)” value ([3]; inhalation, 28 hr) was 4.11 ng/mL and the “Drug Concentration in Animal by No. (plasma)” value ([3]; inhalation, 32 hr from start of exposure) was 7.72 ng/mL and 3.50 ng/mL and 3.33 ng/mL and 4.05 ng/mL and 2.75 ng/mL and 2.51 ng/mL. For the same compound, the “Drug Concentration Mean (plasma)” value ([3]; inhalation, 32 hr) was 3.98 ng/mL, the “Drug Concentration in Animal by No. (plasma)” value ([3]; inhalation, 36 hr from start of exposure) was 6.28 ng/mL and 2.43 ng/mL (2×) and 2.54 ng/mL and 3.59 ng/mL and 2.49 ng/mL and the “Drug Concentration Mean (plasma)” value ([3]; inhalation, 36 hr) was 3.29 ng/mL. For the same compound, the “Drug Concentration in Animal by No. (plasma)” value ([3]; inhalation, 48 hr from start of exposure) was 3.78 ng/mL and 1.79 ng/mL and 1.89 ng/mL and 2.52 ng/mL and 1.83 ng/mL and 1.91 ng/mL, the “Drug Concentration Mean (plasma)” value ([3]; inhalation, 48 hr) was 2.29 ng/mL and the “Drug Concentration Mean (plasma)” value [3, 4] was 2.66 ng/mL. For the same compound, the “Drug Concentration in Animal by No. (plasma)” value [3, 4] was 2.24 ng/mL and 2.59 ng/mL and 3.15 ng/mL, the AUCt dose normalised ([3]; inhalation, AUCt of Form 2 normalised to dose achieved for Form 1 (2.48 mg/kg), 2.48 mg/kg) was 202 ng·h/mL and the “time up to which plasma concentrations remained quantifiable” value ([3]; inhalation, after the start of exposure (last sampling time)) was 48 h. For the same compound, the “Cmax (maximum mean plasma concentration)” value ([3]; single 2 hr inhalation of nebulised aqueous suspension, nominal dose 2.2 mg/kg, 2.2 mg/kg) was 8.59 ng/mL, the AUCt ([3]; single 2 hr inhalation, nominal dose 2.2 mg/kg, 0-48 hr, 2.2 mg/kg) was 230 ng·h/mL and the Tmax ([3]; single 2 hr inhalation, nominal dose 2.2 mg/kg, from start of exposure) was 6 h.
